Consider 2 molecules from patent US10925857B2, “Rational drug design targeting resistant gram-negative bacterial infections to polymyxin-class antibiotics” (The Trustees of Columbia University in the City of New York, priority 2015, dated 2021).

Assay [1] addresses T1, Salmonella typhimurium ArnT (Salmonella typhimurium, UniProt O52327).
T1 construct: expressed in transfected cells; host or cells: E. coli BL21(DE3) ΔArnT transformed with plasmid pGi24 (strain Gi24)
Put plainly: Polymyxin B growth assay for compound screening, Gi24 strain. Format: cell-based. The following applies: E. coli Gi24 strain carrying S. typhimurium ArnT; compound 0.5 mM; 3 μg/ml Polymyxin B; OD 600 nm. An excerpt: (§1) FIGS. 8A-J show graphic results of the polymyxin growth assay for the five Class I compounds obtained in target-based virtual screening. In this and all subsequent figures showing results of compound testing in the polymyxin growth assay, four curves are shown, (i) growth of test strain (BL21 for targeting E. coli ArnT or Gi24 for targeting S. typhimurium ArnT) in the absence of PMXB (−PMXB, represented by an open circle), (ii) growth of test strain in the presence of PMXB (+PMXB, represented by an open square), (iii) growth of test strain in the absence of PMXB and in the presence of test compound (−PMXB+Cmpd, represented by open diamond), and (iv) growth of test strain in the presence of PMXB and test compound (+PMXB+Cmpd, represented by an […]). Each point in the curves represents the mean of six measurements of absorbance (OD) at 600 nm (triplicate samples from two independent experiments). Standard deviation is not shown, but typically ranged from 0.001 to 0.1. Growth of E. coli BL21 strain (carrying the E. coli ArnT) was measured in the presence of Class I compounds 20, 14, 15, 19, or U2 (FIGS. 8A, 8C, SE, 8G and 8I, respectively). Growth of E. coli Gi24 strain (carrying the S. typhimurium ArnT) was measured in the presence of Class I compounds 20, 14, 15, 19, or U2 (FIGS. 8B, 8D, 8F, 8H and 8J, respectively). […]

Another assay has as its target T2, E. coli ArnT (Escherichia coli, UniProt P76473).
T2 construct: it carries the endogenous E. coli ArnT gene; endogenous in cells; host or cells: E. coli BL21(DE3)
Put plainly: Polymyxin B growth assay for compound screening, BL21 strain. To be noted: E. coli BL21 strain carrying E. coli ArnT; compound 0.5 mM; 3 μg/ml Polymyxin B; OD 600 nm. Format: cell-based.
Source text: as §1

In the next assay the test system is E. coli BL21 strain. Put plainly: Control polymyxin growth assay, BL21 strain. The assay is classed as cell-based, Escherichia coli. The following applies: E. coli BL21, endogenous E. coli ArnT gene. An excerpt: (§2) E. coli BL21 strain is used to test efficacy of tested compounds towards the E. coli ArnT protein. […] Gi24 is E. coli BL21 ΔArnT that has been transformed with the plasmid pGi24 that expresses the wt Salmonella typhimurium ArnT. […] The Gi24 strain is used to test efficacy of tested compounds towards the Salmonella typhimurium ArnT protein.
(§3) Three strains were used for the implementation of the polymyxin B growth assay for compound screening in a 96-well plate format: (1) BL21 (DE3) E. coli strain (referred to as BL21). […] E. coli BL21 strain is used to test efficacy of tested compounds towards the E. coli ArnT protein. (2) E. coli BL21(DE3) ΔArnT the endogenous E. coli ArnT gene has been deleted, thus rendering the E. coli BL21 ΔArnT strain sensitive to polymyxin B (referred to as ΔArnT). (3) E. coli BL21(DE3) ΔArnT that has been transformed with the plasmid pGi24 that expresses the wt Salmonella typhimurium ArnT (referred to as Gi24). […]
(§4) Overnight cultures of the three strains were used to inoculate LB media containing 100 μg/ml Ampicillin alone (PMXB−) or 100 μg/ml and 3 μg/ml Polymyxin B (PMXB+) at 1:2000 dilution, as appropriate. […] The 96-well plate was transferred to an Epoch 2 microplate reader (Biotek) and shaken continuously at 37° C. Growth was continuously quantitated spectrophotometrically at 600 nm. […]

The subject of assay [2] is E. coli BL21 ΔArnT strain. The assay can be described thus: Control polymyxin growth assay, BL21 ΔArnT strain. The assay is classed as cell-based, Escherichia coli. The following applies: endogenous ArnT gene deleted.
Source text: as §2, §3, §4

Assay [3] deals with Gi24 strain (E. coli BL21 ΔArnT expressing wt Salmonella typhimurium ArnT). The assay can be described thus: Control polymyxin growth assay, Gi24 strain. The assay is classed as cell-based, Escherichia coli. To be noted: Gi24: BL21 ΔArnT with plasmid pGi24 expressing wt S. typhimurium ArnT.
Source text: as §2, §3, §4

T2 sequence (P76473 whole entry): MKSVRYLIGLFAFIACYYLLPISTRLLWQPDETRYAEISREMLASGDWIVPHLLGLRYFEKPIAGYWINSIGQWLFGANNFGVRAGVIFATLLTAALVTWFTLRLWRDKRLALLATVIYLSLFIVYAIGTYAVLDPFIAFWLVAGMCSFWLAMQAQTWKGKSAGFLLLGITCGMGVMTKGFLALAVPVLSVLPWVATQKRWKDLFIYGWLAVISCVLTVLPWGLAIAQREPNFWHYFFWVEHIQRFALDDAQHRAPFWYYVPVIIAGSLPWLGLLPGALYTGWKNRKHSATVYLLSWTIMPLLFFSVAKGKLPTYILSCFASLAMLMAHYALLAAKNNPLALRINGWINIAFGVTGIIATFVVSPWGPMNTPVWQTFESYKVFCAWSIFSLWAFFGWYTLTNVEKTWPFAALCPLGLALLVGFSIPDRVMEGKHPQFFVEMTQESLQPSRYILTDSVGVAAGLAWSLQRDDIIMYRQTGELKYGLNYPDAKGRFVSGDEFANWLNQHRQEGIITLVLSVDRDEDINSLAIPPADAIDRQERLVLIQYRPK

As to `Cc1[nH]nc(O)c1C(c1ccc(Cl)cc1)c1c(O)n[nH]c1C` [Compound 20, 4-[(4-chlorophenyl)-(3-methyl-5-oxo-1,2-dihydropyrazol-4-yl)methyl]-5-methyl-1,2-dihydropyrazol-3-one], the “ArnT inhibiting activity (retardation of growth of polymyxin resistant strain in the presence of PMXB)” value (in assay [1]; at E. coli ArnT) was “especially strong ArnT inhibiting activity” each time.

Turning to polymyxin B, the “growth of strain in the presence of PMXB” value is listed as “inherently resistant” in the assay with E. coli BL21 strain, “absence of growth” in assay [2] and “growth of Gi24 strain in the presence of PMXB” in assay [3].
